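Growth conditions: 96-well plates. Treatment: test compound, 48 hours, 5 concentrations. Analysis: linear interpolation between bracketing concentrations; unreached endpoints set to highest concentration. GI50 is the concentration that inhibits growth by half.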 The source made the active and inactive calls. Rule as the data show it: active = GI50 up to about 1.1 µM and inactive = higher.

Among the test systems are ACHN; LOX IMVI; SK-MEL-5; 786-0; SW-620; OVCAR-8; A549; HCT-15; SF-268; NCI-H23; OVCAR-3; HCT-116; HOP-62; UACC-62; HCC 2998; Malme-3M.
What all share (experiment): NCI tumour cell line growth inhibition, 48 h

On to `CC(=O)n1cc(CC(C)O)c(=O)[nH]c1=O` (stereo not drawn), for which the GI50 in the assay with ACHN, with LOX IMVI, with SK-MEL-5, with 786-0, in the assay on SW-620 and in the assay on OVCAR-8 was > 100 µM (inactive) in each case. Besides, the GI50 was > 100 µM (inactive) with A549; more than 100 µM in the assay on HCT-15; > 100 µM (inactive) with SF-268; > 100 µM (inactive) in the assay with NCI-H23; > 100 µM (inactive) with OVCAR-3; > 100 µM (inactive) in the assay on HCT-116. The GI50 with HOP-62 and in the assay with UACC-62 was > 100 µM (inactive) throughout.
Take `O=C(O)C(CS)Nc1c2ccccc2nc2ccccc12` (stereo not drawn): the GI50 in the assay with HCC 2998 is 82 µM (inactive); in the assay on ACHN, 38.3 µM (inactive); with LOX IMVI it was 40.6 µM (inactive); with 786-0, > 100 µM (inactive); in the assay on SW-620, 54.1 µM (inactive); in the assay with OVCAR-8, 48.3 µM (inactive). Moreover, the GI50 was 67.5 µM (inactive) in the assay on A549; 51.3 µM in the assay on HCT-15; > 100 µM (inactive) in the assay on SF-268; 91.8 µM (inactive) in the assay on NCI-H23; 49.9 µM (inactive) with OVCAR-3; > 10 µM (inactive) in the assay with HCT-116. Besides, in the assay with Malme-3M, the GI50 was 54.3 µM (inactive).
Regarding `CC(C)(C)C(=O)/C=C/c1ccc(Oc2ccccc2)cc1`, the GI50 in the assay on HCC 2998 is 34.3 µM (inactive); in the assay with ACHN it was 17.5 µM (inactive); in the assay with SK-MEL-5, 16.2 µM (inactive); in the assay with 786-0, 19.4 µM (inactive); in the assay with SW-620, 17.3 µM (inactive); in the assay on OVCAR-8, 30.7 µM (inactive). In addition, the GI50 with A549 is 28.5 µM (inactive); in the assay with HCT-15, more than 10 µM; in the assay on SF-268, 22 µM (inactive); in the assay on NCI-H23 it was > 10 µM (inactive); in the assay on HCT-116, 12.1 µM (inactive); in the assay on Malme-3M, 19.2 µM (inactive). Further, in the assay on HOP-62, the GI50 was 27.4 µM (inactive).
For `CC(C)=CCCC1(C)C=Cc2c(c(C)cc3c2[nH]c2cc(O)ccc23)O1` (stereo not drawn), the GI50 with HCC 2998, in the assay with ACHN, in the assay on LOX IMVI, with SK-MEL-5, in the assay on 786-0 and with SW-620 was > 25 µM (inactive) each time. The GI50 is > 25 µM (inactive) in the assay with OVCAR-8; > 25 µM (inactive) with A549; more than 25 µM in the assay on HCT-15; > 25 µM (inactive) in the assay on SF-268; > 25 µM (inactive) in the assay with OVCAR-3; > 25 µM (inactive) in the assay with HCT-116. For the same compound, the GI50 in the assay on Malme-3M, in the assay on HOP-62 and with UACC-62 was > 25 µM (inactive) throughout.
Consider `COc1ccc(Br)c(C(=O)N2CCc3ccccc32)c1N`, for which the GI50 is 30 µM (inactive) in the assay on HCC 2998; 49 µM (inactive) in the assay with ACHN; 93.1 µM (inactive) with LOX IMVI; 40.2 µM (inactive) in the assay on SK-MEL-5; 42.4 µM (inactive) in the assay with 786-0; 49.1 µM (inactive) in the assay with SW-620. In addition, the GI50 with OVCAR-8 is 32.3 µM (inactive); in the assay on A549, 59.6 µM (inactive); with HCT-15, 29.2 µM; in the assay on NCI-H23, 44.9 µM (inactive); in the assay with OVCAR-3 it was 27.5 µM (inactive); in the assay on HCT-116, 42.2 µM (inactive). Moreover, the GI50 is 66.4 µM (inactive) in the assay with Malme-3M, 42.3 µM (inactive) in the assay on HOP-62 and 43.8 µM (inactive) with UACC-62.
In the case of `Cn1c(=O)c2nc3sc4ccccc4c(=N)n3c2n(C)c1=O`, the GI50 in the assay on HCC 2998, with ACHN, in the assay with LOX IMVI, with SK-MEL-5, in the assay on 786-0 and in the assay with SW-620 was > 100 µM (inactive) in each case. Also, the GI50 in the assay on OVCAR-8, with A549, with SF-268, with NCI-H23, in the assay with Malme-3M and with HOP-62 was > 100 µM (inactive) throughout. Also, the GI50 in the assay with UACC-62 was > 100 µM (inactive).
`C[N+]1(C)C/C(=C/c2ccc(F)cc2)C(=O)/C(=C\c2ccc(F)cc2)C1`: the GI50 was > 100 µM (inactive) with HCC 2998; > 100 µM (inactive) with ACHN; > 100 µM (inactive) in the assay on LOX IMVI; 49.4 µM (inactive) with 786-0; 75.9 µM (inactive) in the assay on SW-620; 47.2 µM (inactive) in the assay on OVCAR-8. Besides, the GI50 with A549 was 74 µM (inactive); in the assay with HCT-15, more than 100 µM; in the assay on SF-268, 23.3 µM (inactive); with NCI-H23, 32.7 µM (inactive); in the assay on OVCAR-3, 45.5 µM (inactive); in the assay with HCT-116, > 100 µM (inactive). For the same compound, the GI50 was 42.1 µM (inactive) in the assay on Malme-3M, > 100 µM (inactive) in the assay with HOP-62 and 13.8 µM (inactive) with UACC-62.
Turning to `CC#CCC1CCC(OCC)=CC1=O` (stereo not drawn), the GI50 in the assay on ACHN, with LOX IMVI, in the assay with SK-MEL-5, in the assay on 786-0, in the assay on SW-620 and in the assay with OVCAR-8 was > 100 µM (inactive) in each case. The GI50 with A549 was > 100 µM (inactive); in the assay with HCT-15, more than 100 µM; in the assay with SF-268 it was > 100 µM (inactive); with NCI-H23, > 100 µM (inactive); with OVCAR-3 it was > 100 µM (inactive); in the assay with HCT-116 it was > 100 µM (inactive). The GI50 in the assay with HOP-62 and with UACC-62 was > 100 µM (inactive) throughout.
As to `O=C1CCCC(O)=C1SC1=C(O)CCCC1=O`, the GI50 is 70.1 µM (inactive) in the assay on HCC 2998; > 100 µM (inactive) with LOX IMVI; > 100 µM (inactive) in the assay on SK-MEL-5; 81.1 µM (inactive) in the assay with 786-0; > 100 µM (inactive) in the assay with SW-620; > 100 µM (inactive) in the assay with OVCAR-8. Moreover, the GI50 in the assay with A549 is 70.3 µM (inactive); in the assay on HCT-15, 47.2 µM; in the assay on SF-268, > 100 µM (inactive); with NCI-H23, > 100 µM (inactive); in the assay on OVCAR-3, > 100 µM (inactive); in the assay with HCT-116 it was 76 µM (inactive). In addition, the GI50 in the assay with Malme-3M was > 100 µM (inactive); in the assay on UACC-62, 46.9 µM (inactive).
`COc1ccc2c3ccc4c(c3n(C)c2c1)C(=O)C=CC4=O`: the GI50 in the assay with HCC 2998 is 84.5 µM (inactive); with ACHN it was 20.7 µM (inactive); in the assay on SK-MEL-5, > 100 µM (inactive); with 786-0 it was 17.9 µM (inactive); in the assay on SW-620, 16.4 µM (inactive); in the assay with OVCAR-8 it was 16.9 µM (inactive). The GI50 in the assay on A549 was > 100 µM (inactive); with HCT-15, 42.6 µM; in the assay with SF-268, 44.3 µM (inactive); with NCI-H23, 52.1 µM (inactive); in the assay on HCT-116, 19.6 µM (inactive); in the assay on Malme-3M, 30.5 µM (inactive). Besides, the GI50 in the assay with HOP-62 was > 100 µM (inactive); in the assay with UACC-62, 40.3 µM (inactive).
As for `O=[N+]([O-])c1cccc(-c2oc(/C=N/c3ccccc3)c([N+](=O)[O-])c2-c2cccc([N+](=O)[O-])c2)c1`, the GI50 with HCC 2998, in the assay with ACHN, in the assay on LOX IMVI, in the assay on SK-MEL-5, in the assay on 786-0 and with SW-620 was > 100 µM (inactive) in each case. In addition, the GI50 in the assay on OVCAR-8, with A549, with SF-268, in the assay on NCI-H23, in the assay with OVCAR-3 and with HCT-116 was > 100 µM (inactive) throughout. For the same compound, the GI50 in the assay with Malme-3M, in the assay on HOP-62 and in the assay on UACC-62 was > 100 µM (inactive) in each case.
As to `CS(=O)(=O)C1S(=O)(=O)OCCOS1(=O)=O`, the GI50 with HCC 2998, in the assay on ACHN, with LOX IMVI, with SK-MEL-5, in the assay on 786-0 and in the assay with SW-620 was > 100 µM (inactive) throughout. Besides, the GI50 in the assay on OVCAR-8, with A549, in the assay on SF-268, with NCI-H23, in the assay on OVCAR-3 and in the assay on HCT-116 was > 100 µM (inactive) throughout. The GI50 in the assay with Malme-3M, in the assay with HOP-62 and with UACC-62 was > 100 µM (inactive) throughout.
Take `COc1ccc2c(c1)CCc1c(C(C)=O)c3ccccc3n1C2`: the GI50 with HCC 2998 was 33.7 µM (inactive); in the assay on ACHN, 12 µM (inactive); with LOX IMVI, 41 µM (inactive); with SK-MEL-5, 6.19 µM (inactive); with 786-0, 31.6 µM (inactive); in the assay on SW-620 it was > 100 µM (inactive). Also, the GI50 in the assay with OVCAR-8 is 28.1 µM (inactive); in the assay with A549 it was 11.2 µM (inactive); in the assay on SF-268, 29.1 µM (inactive); in the assay on NCI-H23, 16.5 µM (inactive); with OVCAR-3, 12.1 µM (inactive); in the assay with HCT-116, 25.8 µM (inactive). The GI50 in the assay on Malme-3M was 18.1 µM (inactive); with HOP-62, 26.4 µM (inactive); in the assay with UACC-62, 25.6 µM (inactive).
`C#CCn1c(=O)[nH]c(=O)c2cccnc21`: the GI50 in the assay on HCC 2998, in the assay with ACHN, with LOX IMVI, in the assay on SK-MEL-5, in the assay with 786-0 and in the assay with SW-620 was > 100 µM (inactive) throughout. For the same compound, the GI50 was > 100 µM (inactive) in the assay on A549; more than 100 µM with HCT-15; > 100 µM (inactive) in the assay with SF-268; > 100 µM (inactive) in the assay with NCI-H23; > 100 µM (inactive) in the assay with HCT-116; > 100 µM (inactive) in the assay with Malme-3M. Further, the GI50 with HOP-62 is > 100 µM (inactive).

The values are drawn from ChEMBL document CHEMBL1201862, “PubChem BioAssay data set” (2004).
